Reference: the METLIN SMRT retention time set (Domingo-Almenara et al. 2019)

Assay: gradient 5% acetonitrile 3 min, to 50% in 2 min, to 85% in 15 min, held 3 min, 100 µL/min
Conditions: column: Zorbax Extend-C18 2.1 x 50 mm; eluents: water / acetonitrile, 0.1% formic acid
Outline: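 Over 3 months, pure standards in mixtures of ~100 molecules were run by HPLC coupled to a quadrupole time-of-flight mass spectrometer in positive and negative ionization mode. The column was a Zorbax Extend-C18 (2.1 × 50 mm, 1.8 μm) at 100 μL/min, eluted with water and acetonitrile each holding 0.1% formic acid, with 40 μL dead and 900 μL dwell volumes. Retention time was determined from adduct peaks chosen by software and checked manually.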

RP-LC retention time [s] | SMILES
682 | Cn1cc(C(CNC(=O)Nc2ccccc2F)c2cccnc2)c2ccccc21 (stereo unspecified)
1200 | CC1Oc2ccccc2N(Cc2nc(-c3cccc(Br)c3)no2)C1=O (stereo unspecified)
619 | COc1ccc(OC)c(S(=O)(=O)N2CCC(Cc3nncn3C)C2)c1 (stereo unspecified)
1020 | COc1cccc(-n2c(N3CCCC(C(=O)NCCC4=CCCCC4)C3)nc3ccsc3c2=O)c1 (stereo unspecified)
1050 | COc1ccccc1-c1nc(Cn2nnc(-c3nc(-c4cccs4)no3)c2C)c(C)o1
798 | C1=CC2(C=C1)OC21CCC2(C=CC3(C2)OC3C2CCCCC2)CC1 (stereo unspecified)
788 | COc1cccc(N2CCN(c3ccnc(SCC(=O)NCc4ccccc4Cl)n3)CC2)c1
700 | Cc1cccc(-n2nc(C)c3sc(N(C)CC(=O)N4CCN(c5ccccn5)CC4)nc32)c1
837 | Cc1cc2c(cc1CNC(=O)Cn1cc(C(=O)c3ccco3)c3ccccc31)OCCCO2
680 | COc1ccc(CNC(=O)N2CC(c3nc(C)no3)C3(CCOCC3)C2)cc1 (stereo unspecified)
752 | CCOCC(=O)N1CCCN(C2=NS(=O)(=O)C(c3ccc(C)cc3)=C2C)CC1
835 | O=S(=O)(c1cccnc1)N1CC(c2nc(CCOCc3ccccc3)no2)C1
971 | CCc1nc(OCC(=O)NCc2cc(OC)ccc2OC)c2c(C)c(C)oc2n1
1040 | O=S(=O)(c1ccc(Cl)c(-c2nnc(-c3ccccc3)o2)c1)N1CCCC1
602 | CN(C)C(CNS(=O)(=O)/C=C/c1ccccc1)c1cn(C)c2ccccc12 (stereo unspecified)
1020 | CC(C)CCNC(=O)c1ccc(-c2nc3cccnc3n2C2CCCCC2)cc1
884 | CCCn1cc(CCNC(=O)Nc2ccc(C)c(Cl)c2)c2cccnc21
806 | Cn1ccc2cc(C(=O)NC3CCCC3)ccc21

RP-LC retention time [s] | SMILES
808 | O=C1NCCCn2cc(S(=O)(=O)N(Cc3ccccc3)c3ccccc3)cc21
673 | CC1CCN(S(=O)(=O)c2ccc3c(c2)-c2oncc2CO3)CC1
1010 | CCc1nc(-c2csc(S(=O)(=O)N3CCC(C(=O)Nc4cccc(F)c4)CC3)c2)no1
857 | O=C(Cn1ccn2nc(-c3ccc(F)cc3)c(CO)c2c1=O)N1CCc2ccccc21
610 | COCC(=O)N1CCC2(CC1)NC(=O)c1ccccc1O2
983 | Cc1cccc(NC(=O)Cc2csc3nc(-c4cccc(Br)c4)cn23)c1C
1150 | CC(C)Cc1ccc(S(=O)(=O)N2CCc3c(c(-c4nnc(-c5ccccc5)o4)nn3C)C2)cc1
946 | CCOC(=O)C1=C(C)NC(=O)NC1c1cn(-c2ccccc2)nc1-c1ccc(OCC)cc1 (stereo unspecified)
834 | CCN1C(=O)CCc2cc(NS(=O)(=O)c3ccc(F)c(C)c3)ccc21
594 | Fc1cccc2sc(NCc3ccccn3)nc12
753 | COc1ccc(NC(=O)N2CCC3(CC2)NC(=O)c2cc(Cl)ccc2N3C)cc1
962 | Cc1cc(C)cc(N2C(=O)N(CC(=O)N3CCOc4ccc(C)cc43)C3CS(=O)(=O)CC32)c1 (stereo unspecified)
849 | CSc1nc(N2CCCC2)c2cnn(CCNC(=O)c3cc(-c4ccco4)on3)c2n1
623 | CC(=O)SCc1nc(SCC(=O)Nc2ccccc2C)n[nH]1
588 | Clc1cccc(-c2ccc(CNCCCn3ccnc3)o2)c1
1190 | CCOc1cccc(Cn2c(=O)c3sccc3n(Cc3nc(-c4ccccc4C)no3)c2=O)c1
818 | Cc1ccc(S(=O)(=O)N2CCC(c3nc(C(=O)N(C)C)c(C)o3)CC2)cc1

Continued, compound first:

SMILES | RP-LC retention time [s]
CCOC(=O)C1CCCN(C(=O)C2CCN(S(=O)(=O)c3ccc4c(ccn4CC)c3)CC2)C1 (stereo unspecified) | 849
CCCNC(=O)c1nnn(Cc2ccc(Cl)cc2)c1-n1cccc1 | 980
CC(C)C(=O)NCc1csc(C2CCN(C(=O)C3CCC3)CC2)n1 | 876
CCn1nnnc1NCc1ccc2c(c1)n(C)c(=O)n2C | 617
COCc1nc2cccnc2n1C1CCN(C(=O)Nc2cc(OC)ccc2OC)CC1 | 696
CN1CCn2ccnc2C12CCN(C(=O)Nc1ccccc1Cl)CC2 | 576
Cc1cc(=O)n(CC(=O)Nc2ccc(F)cc2)c(N)n1 | 592
CC1CCN(C(=O)C2=NN(C(C)C)c3cc(Cl)ccc3S2(=O)=O)CC1 | 1020
CCOC(=O)c1nc(Nc2ccc(OC)c(OC)c2)c2ccccc2n1 | 736
O=C(Nc1ccccc1C(F)(F)F)N1CCC(n2cnc3cccnc32)CC1 | 657
COC1CCC12CCN(Cc1ccccn1)CC2 (stereo unspecified) | 571
Cc1cc2c(=O)n(CC(=O)Nc3ccc(Br)cc3F)ccc2s1 | 869
Cc1ccc(-c2csc(NC(=O)C3CCC3)n2)cc1C | 1100
Cc1cccc(-c2noc(Cn3ncn4nc(-c5ccc(Br)cc5)cc4c3=O)n2)c1 | 1260
O=C(CCn1cnc2c(cnn2-c2ccccc2)c1=O)N1CCN(C(=O)c2ccco2)CC1 | 653
CCCN(C)c1ccc2ncc(=O)n(C)c2n1 | 923

SMILES | RP-LC retention time [s]
O=C(Cn1c(=O)c2cccn2c2ccc(F)cc21)NCCN1CCCCCC1 | 623
CN1C(=O)c2cc(S(=O)(=O)Nc3ccc(F)c(Cl)c3)ccc2Oc2cccnc21 | 962
COc1cccc(-c2noc(C3CCCN3C(=O)Nc3ccccc3C)n2)c1 (stereo unspecified) | 877
CCCOc1nc2ccccc2nc1N1CCCC(C(=O)N2CCN(c3ccccc3F)CC2)C1 (stereo unspecified) | 1380
N#Cc1cccc(NC(=O)C2CCN(S(=O)(=O)c3cc(C(=O)N4CCCC4)cs3)CC2)c1 | 995
NC1(Cc2ccc(Cl)cc2)CCN(c2ncnc3[nH]ccc23)CC1 | 602
Cn1nc(-c2nnc(-c3ccccc3Cl)o2)c2c1CCN(C(=O)NC1CCCCC1)C2 | 899
CCn1nc(C)c(CCNC(=O)CCCn2c3ccccc3c3cnn(C)c(=O)c32)c1C | 698
COc1ccc(-n2c(=O)c(C(=O)NC(C)c3ccccc3)c(O)c3cccnc32)cc1 (stereo unspecified) | 1180
Cn1nc(-c2nnc(-c3ccccc3F)o2)c2c1CCN(S(=O)(=O)c1ccc(F)cc1)C2 | 903
Cc1nc(NC(=O)C2CC(=O)N(c3n[nH]c4cccc(F)c34)C2)sc1C (stereo unspecified) | 688
COCc1cc(=O)n(CC(=O)Nc2ccc(C)cc2)c(N)n1 | 595
COCC(=O)N(C1CCOCC1)C1CCN(S(=O)(=O)c2cccc(C)c2)CC1 | 762
O=C(Cn1ccc2ccc(N3CCOCC3)nc21)N1CCN(c2ccccc2Cl)CC1 | 1060
CCc1cccc(Nc2c(-c3nc(C)no3)cnc3nc(C)ccc23)c1 | 835
